Test results from ChEMBL document CHEMBL4052619, “First example of peptides targeting the dimer interface of Leishmania infantum trypanothione reductase with potent in vitro antileishmanial activity” (Eur J Med Chem, 2017).
Active and inactive are the calls of the source. No cut-off for these calls is given here. Bridge positions count the residues as written; N and C are the ends. Square brackets hold non-standard residues; d marks the D form. Peptide text beside a SMILES is read from it. ξ: configuration not given here. ξQ = NC(=O)CCC(N)C(=O)O; ξNle = CCCCC(N)C(=O)O; Aib = CC(C)(N)C(=O)O

Assays:
[1] = system: Leishmania infantum; assay: Antileishmanial activity against Leishmania infantum axenic amastigotes assessed as induction of cell death after 24 hrs by propidium iodide staining based flow cytometry; type: functional
[2] = system: Leishmania infantum; assay: Antileishmanial activity against Leishmania infantum MCAN/ES/89/IPZ229/1/89 promastigotes assessed as induction of cell death after 24 hrs by propidium iodide staining based flow cytometry; type: functional; conditions: MCAN/ES/89/IPZ229/1/89, 24 h
[3] = Cytotoxicity against human THP1 cells assessed as induction of cell death after 24 hrs by propidium iodide staining based flow cytometry; conditions: THP-1 cells, read-out: LC50
[4] = molecular target: T1, Trypanothione reductase (Leishmania infantum, UniProt A4HSF7); assay: Inhibition of recombinant Leishmania infantum TryR preincubated for 10 mins followed by T[S]2 substrate addition and measured after 1 hr in presence of NADPH
T1 sequence (A4HSF7 whole entry): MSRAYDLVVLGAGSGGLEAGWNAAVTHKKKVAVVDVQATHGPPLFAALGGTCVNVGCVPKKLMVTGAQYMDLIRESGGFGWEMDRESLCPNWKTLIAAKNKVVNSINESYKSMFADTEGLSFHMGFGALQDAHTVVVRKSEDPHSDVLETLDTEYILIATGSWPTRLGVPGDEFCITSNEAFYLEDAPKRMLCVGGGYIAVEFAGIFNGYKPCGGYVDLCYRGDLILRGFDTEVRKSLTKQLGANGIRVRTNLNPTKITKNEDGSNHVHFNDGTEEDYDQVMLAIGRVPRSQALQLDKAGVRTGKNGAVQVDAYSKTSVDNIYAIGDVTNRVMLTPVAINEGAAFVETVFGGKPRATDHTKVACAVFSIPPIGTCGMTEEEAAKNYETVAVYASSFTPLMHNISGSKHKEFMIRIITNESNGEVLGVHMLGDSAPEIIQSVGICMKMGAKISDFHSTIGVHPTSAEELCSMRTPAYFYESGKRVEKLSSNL

[5] = molecular target: T1, Trypanothione reductase; assay: Inhibition of recombinant His/FLAG-tagged Leishmania infantum TryR dimerization assessed as dimer disruption after 1 hr by ELISA
[6] = system: Leishmania infantum; assay: Antileishmanial activity against Leishmania infantum axenic amastigotes assessed as induction of cell death at 25 uM after 24 hrs by propidium iodide staining based flow cytometry; type: functional
[7] = system: Leishmania infantum; assay: Antileishmanial activity against Leishmania infantum MCAN/ES/89/IPZ229/1/89 promastigotes assessed as induction of cell death at 25 uM after 24 hrs by propidium iodide staining based flow cytometry; type: functional

| Molecule | LC50 [1] | LC50 [2] | CC50 at 24 h [3] | IC50 [4] | IC50 [5] | Activity [6] | Activity [7] |
| --- | --- | --- | --- | --- | --- | --- | --- |
| CC(=O)N[C@@H](CCCNC(=N)N)C(=O)N[C@@H](CCCNC(=N)N)C(=O)N[C@@H](CCCNC(=N)N)C(=O)N[C@@H](CCCNC(=N)N)C(=O)N[C@@H](CCCNC(=N)N)C(=O)N[C@@H](CCCNC(=N)N)C(=O)N[C@@H](CCCNC(=N)N)C(=O)N[C@@H](CCCNC(=N)N)C(=O)N[C@@H](CCCNC(=N)N)C(N)=O | > 25 µM | > 25 µM | > 25 µM | – | – | – | – |
| CC[C@H](C)[C@H](NC(=O)CNC(=O)[C@@H](NC(=O)[C@H](CO)NC(=O)[C@H](CCC(N)=O)NC(=O)[C@@H](NC(=O)[C@@H](NC(=O)[C@H](CCCCN)NC(=O)[C@@H]1CCCN1C(C)=O)[C@@H](C)CC)[C@@H](C)CC)C(C)C)C(N)=O | – | – | – | 3.7 µM | 20.8 µM | inactive | inactive |
| CCCCC(NC(=O)[C@H](CCCCN)NC(=O)C(CCCC)NC(=O)[C@H](CO)NC(=O)[C@@H](NC(=O)CNC(=O)[C@@H](NC(=O)[C@H](CO)NC(=O)[C@H](CCC(N)=O)NC(=O)[C@@H](NC(=O)[C@@H](NC(=O)[C@H](CCCCN)NC(=O)[C@@H]1CCCN1C(C)=O)[C@@H](C)CC)[C@@H](C)CC)C(C)C)[C@@H](C)CC)C(=O)N[C@@H](CCCNC(=N)N)C(=O)N[C@@H](CCCNC(=N)N)C(=O)N[C@@H](CCCNC(=N)N)C(=O)N[C@@H](CCCNC(=N)N)C(=O)N[C@@H](CCCNC(=N)N)C(=O)N[C@@H](CCCNC(=N)N)C(=O)N[C@@H](CCCNC(=N)N)C(=O)N[C@@H](CCCNC(=N)N)C(=O)N[C@@H](CCCNC(=N)N)C(N)=O (some centres undefined) | 2.1 µM | 4.4 µM | 0.8 µM | – | – | – | – |
| CC(=O)NCC(=O)N[C@@H](CCCNC(=N)N)C(=O)N[C@@H](CCCCN)C(=O)N[C@@H](CCCCN)C(=O)N[C@@H](CCCNC(=N)N)C(=O)N[C@@H](CCCNC(=N)N)C(=O)N[C@@H](CCC(N)=O)C(=O)N[C@@H](CCCNC(=N)N)C(=O)N[C@@H](CCCNC(=N)N)C(=O)N[C@@H](CCCNC(=N)N)C(=O)N1CCC[C@H]1C(=O)N1CCC[C@H]1C(=O)N[C@@H](CCC(N)=O)C(N)=O | > 25 µM | > 25 µM | > 25 µM | – | – | – | – |
| CCCCC(NC(=O)[C@@H]1CCCCNC(=O)CC[C@H](NC(=O)[C@@H](NC(=O)[C@H](CO)NC(=O)[C@H](CCC(N)=O)NC(=O)[C@@H](NC(=O)[C@@H](NC(=O)[C@H](CCCCN)NC(=O)[C@@H]2CCCN2C(C)=O)[C@@H](C)CC)[C@@H](C)CC)C(C)C)C(=O)N[C@@H]([C@@H](C)CC)C(=O)N[C@@H](CO)C(=O)NC(CCCC)C(=O)N1)C(N)=O (some centres undefined) | – | – | – | 27 µM | 12.1 µM | inactive | inactive |
| CCCCC(NC(=O)[C@H](CCCCN)NC(=O)C(CCCC)NC(=O)[C@H](CO)NC(=O)[C@@H](NC(=O)[C@H](CCC(=O)O)NC(=O)[C@@H](NC(=O)[C@H](CO)NC(=O)[C@H](CCC(N)=O)NC(=O)[C@@H](NC(=O)[C@@H](NC(=O)[C@H](CCCCN)NC(=O)[C@@H]1CCCN1C(C)=O)[C@@H](C)CC)[C@@H](C)CC)C(C)C)[C@@H](C)CC)C(N)=O (some centres undefined) | – | – | – | > 75 µM | – | inactive | inactive |
| CCCCC(NC(=O)[C@H](CCCCN)NC(=O)C(CCCC)NC(=O)[C@H](CO)NC(=O)[C@@H](NC(=O)CNC(=O)[C@@H](NC(=O)[C@H](CO)NC(=O)[C@H](CCC(N)=O)NC(=O)[C@@H](NC(=O)[C@@H](NC(=O)[C@H](CCCCN)NC(=O)[C@@H]1CCCN1C(=O)[C@H](CCC(N)=O)NC(=O)[C@@H]1CCCN1C(=O)[C@@H]1CCCN1C(=O)[C@H](CCCNC(=N)N)NC(=O)[C@H](CCCNC(=N)N)NC(=O)[C@H](CCCNC(=N)N)NC(=O)[C@H](CCC(N)=O)NC(=O)[C@H](CCCNC(=N)N)NC(=O)[C@H](CCCNC(=N)N)NC(=O)[C@H](CCCCN)NC(=O)[C@H](CCCCN)NC(=O)[C@H](CCCNC(=N)N)NC(=O)CNC(C)=O)[C@@H](C)CC)[C@@H](C)CC)C(C)C)[C@@H](C)CC)C(N)=O (some centres undefined) (Ac-GRKKRRQRRRPPQPKIIQSVGIS[ξNle]K[ξNle]-NH2) | 1.5 µM | 4.3 µM | 1.2 µM | – | – | – | – |
| CC[C@H](C)[C@H](NC(=O)CNC(=O)[C@@H]1CCCCNC(=O)CC[C@H](NC(=O)[C@H](CCCCN)NC(=O)[C@@H]2CCCN2C(C)=O)C(=O)N[C@@H]([C@@H](C)CC)C(=O)N[C@@H](CCC(N)=O)C(=O)N[C@@H](CO)C(=O)N1)C(N)=O (Ac-PKEIQSKGI-NH2; lactam 3-7) | – | – | – | > 75 µM | > 75 µM | inactive | inactive |
| CCCCC(NC(=O)[C@H](CCCCN)NC(=O)C(CCCC)NC(=O)[C@H](CO)NC(=O)[C@@H](NC(=O)CNC(=O)[C@H](CCCCN)NC(=O)[C@H](CO)NC(=O)[C@H](CCC(N)=O)NC(=O)[C@@H](NC(=O)[C@H](CCC(=O)O)NC(=O)[C@H](CCCCN)NC(=O)[C@@H]1CCCN1C(C)=O)[C@@H](C)CC)[C@@H](C)CC)C(N)=O (some centres undefined) (Ac-PKEIQSKGIS[ξNle]K[ξNle]-NH2) | – | – | – | > 75 µM | – | inactive | inactive |
| CCCCC(NC(=O)[C@H](CCCCN)NC(=O)C(CCCC)NC(=O)[C@H](CO)NC(=O)[C@@H](NC(=O)[C@H](CCCCN)NC(=O)[C@@H](NC(=O)[C@H](CO)NC(=O)[C@H](CCC(N)=O)NC(=O)[C@H](CCC(=O)O)NC(=O)[C@@H](NC(=O)[C@H](CCCCN)NC(=O)[C@@H]1CCCN1C(C)=O)[C@@H](C)CC)C(C)C)[C@@H](C)CC)C(N)=O (some centres undefined) (Ac-PKIEQSVKIS[ξNle]K[ξNle]-NH2) | – | – | – | > 75 µM | – | inactive | inactive |
| CCCCC(NC(=O)[C@H](CCCCN)NC(=O)[C@H](CCCCN)NC(=O)[C@H](CO)NC(=O)[C@@H](NC(=O)CNC(=O)[C@H](CCC(=O)O)NC(=O)[C@H](CO)NC(=O)[C@H](CCC(N)=O)NC(=O)[C@@H](NC(=O)[C@@H](NC(=O)[C@H](CCCCN)NC(=O)[C@@H]1CCCN1C(C)=O)[C@@H](C)CC)[C@@H](C)CC)[C@@H](C)CC)C(N)=O (some centres undefined) (Ac-PKIIQSEGISKK[ξNle]-NH2) | – | – | – | > 75 µM | – | inactive | inactive |
| CCCCC(NC(=O)[C@H](CCCCN)NC(=O)[C@@H]1CCCCNC(=O)CC[C@H](NC(=O)[C@H](CO)NC(=O)[C@H](CCC(N)=O)NC(=O)[C@@H](NC(=O)[C@@H](NC(=O)[C@H](CCCCN)NC(=O)[C@@H]2CCCN2C(C)=O)[C@@H](C)CC)[C@@H](C)CC)C(=O)NCC(=O)N[C@@H]([C@@H](C)CC)C(=O)N[C@@H](CO)C(=O)N1)C(N)=O (some centres undefined) (Ac-PKIIQSEGISKK[ξNle]-NH2; lactam 7-11) | – | – | – | > 75 µM | > 75 µM | inactive | inactive |
| CCCCC(NC(=O)[C@H](CCCCN)NC(=O)C(CCCC)NC(=O)[C@H](CO)NC(=O)[C@@H](NC(=O)CNC(=O)[C@@H]1CCCCNC(=O)CC[C@H](NC(=O)[C@H](CCCCN)NC(=O)[C@@H]2CCCN2C(=O)[C@H](CCCNC(=N)N)NC(=O)[C@H](CCCNC(=N)N)NC(=O)[C@H](CCCNC(=N)N)NC(=O)[C@H](CCCNC(=N)N)NC(=O)[C@H](CCCNC(=N)N)NC(=O)[C@H](CCCNC(=N)N)NC(=O)[C@H](CCCNC(=N)N)NC(=O)[C@H](CCCNC(=N)N)NC(=O)[C@H](CCCNC(=N)N)NC(C)=O)C(=O)N[C@@H]([C@@H](C)CC)C(=O)N[C@@H](CCC(N)=O)C(=O)N[C@@H](CO)C(=O)N1)[C@@H](C)CC)C(N)=O (some centres undefined) (Ac-RRRRRRRRRPKEIQSKGIS[ξNle]K[ξNle]-NH2; lactam 12-16) | 2.8 µM | 3.5 µM | 2.5 µM | – | – | – | – |
| CCCCC(NC(=O)[C@H](CCCCN)NC(=O)C(CCCC)NC(=O)[C@H](CO)NC(=O)[C@@H](NC(=O)CNC(=O)[C@@H](NC(=O)[C@H](CO)NC(=O)[C@H](CCC(N)=O)NC(=O)[C@@H](NC(=O)[C@@H](NC(=O)[C@H](CCCCN)NC(=O)[C@@H]1CCCN1C(=O)[C@H](CCCNC(=N)N)NC(=O)[C@H](CCCNC(=N)N)NC(=O)[C@H](CCCNC(=N)N)NC(=O)[C@H](CCCNC(=N)N)NC(=O)[C@H](CCCNC(=N)N)NC(=O)[C@H](CCCNC(=N)N)NC(=O)[C@H](CCCNC(=N)N)NC(=O)[C@H](CCCNC(=N)N)NC(=O)[C@H](CCCNC(=N)N)NC(C)=O)[C@@H](C)CC)[C@@H](C)CC)C(C)C)[C@@H](C)CC)C(N)=O (some centres undefined) (Ac-RRRRRRRRRPKIIQSVGIS[ξNle]K[ξNle]-NH2) | 3.5 µM | 4.6 µM | 1.7 µM | – | – | – | – |
| CCCCC(NC(=O)[C@H](CCCCN)NC(=O)C(CCCC)NC(=O)[C@H](CO)NC(=O)[C@@H](NC(=O)CNC(=O)[C@@H]1CCCCNC(=O)CC[C@H](NC(=O)[C@H](CCCCN)NC(=O)[C@@H]2CCCN2C(=O)C(C)(C)NC(=O)[C@H](CCCNC(=N)N)NC(=O)[C@H](CCCNC(=N)N)NC(=O)C(C)(C)NC(=O)[C@H](CCCNC(=N)N)NC(=O)[C@H](CCCNC(=N)N)NC(=O)C(C)(C)NC(=O)[C@H](CCCNC(=N)N)NC(=O)[C@H](CCCNC(=N)N)NC(C)=O)C(=O)N[C@@H]([C@@H](C)CC)C(=O)NC(CCC(N)=O)C(=O)N[C@@H](CO)C(=O)N1)[C@@H](C)CC)C(N)=O (some centres undefined) (Ac-RR[Aib]RR[Aib]RR[Aib]PKEI[ξQ]SKGIS[ξNle]K[ξNle]-NH2; lactam 12-16) | 10.4 µM | 6.4 µM | 5.2 µM | – | – | – | – |
| CCCCCCCCCCCCCCCCCCOCC(COP(=O)([O-])OCC[N+](C)(C)C)OC (centres undefined) [EDELFOSINE] | 0.6 µM | 9 µM | 1 µM | – | – | – | – |
| CCCCCCCCCCCCCCCCOP(=O)([O-])OCC[N+](C)(C)C [MILTEFOSINE] | 2 µM | 47.6 µM | 19 µM | – | – | – | – |
| Ac-PKEIQSKGI-NH2 | – | – | – | > 75 µM | – | inactive | inactive |
| Ac-PKIEQSVKI-NH2 | – | – | – | 47.4 µM | – | inactive | inactive |
| Ac-RRRRRRRRRKMGISSMVQPKII-NH2 | > 25 µM | > 25 µM | > 25 µM | – | – | – | – |
